Results from patent US8093272B2 (priority 2004, dated 2012).

Assays:
5-HT-uptake = assay: Measurement of serotonin re-uptake in rat brain synaptosomes (P2 fraction, medulla+pons region); type: biochemical; conditions: synaptosomes from medulla+pons region of male rats' brains
Method: Measurement of Serotonin Re-Uptake
In order to carry out these in vitro studies, synaptosomes were freshly isolated from areas of rats' brains. In each case, what is known as a “P2” fraction, which was prepared in accordance with Gray and Whittaker's directions (E. G. Gray and V. P. Whittaker (1962) J. Anat. 76, 79-88), was used. For the 5HT-e, uptake these vesicular particles were isolated from the medulla+pons region of male rats' brains.
A detailed description of the method can be found in the literature (M. Ch. Frink, H.-H. Hennies, W. Englberger, M. Haurand and B. Wilffert (1996) Arzneim.-Forsch./Drug Res. 46 (III), 11, 1029-1036).

NA-uptake = assay: Measurement of noradrenalin re-uptake in rat brain synaptosomes (P2 fraction, hypothalamus); type: biochemical; conditions: synaptosomes from hypothalamus of male rats' brains
Method: Measurement of Noradrenalin Re-Uptake
In order to carry out these in vitro studies, synaptosomes were freshly isolated from rat brain areas. In each case, what is known as a “P2” fraction, which was prepared in accordance with Gray and Whittaker's directions (E. G. Gray and V. P. Whittaker (1962) J. Anat. 76, 79-88), was used. For the NA-uptake, uptake these vesicular particles were isolated from the hypothalamus of male rats' brains.
A detailed description of the method can be found in the literature (M. Ch. Frink, H.-H. Hennies, W. Englberger, M. Haurand and B. Wilffert (1996) Atzneim.-Forsch./Drug Res. 46 (III), 11, 1029-1036).

Row | Structure (SMILES) | 5-HT-uptake, 10 μM, % inhibition (5-HT-uptake) [%] | NA-uptake, 10 μM, % inhibition (NA-uptake) [%]
1 | Cc1onc(-c2ccccc2Cl)c1C(=O)NC1CCC(c2cccc(F)c2)(N(C)C)CC1.Cl (single isomer, unassigned) [Example 119, 3-(2-chlorophenyl)-5-methylisoxazole-4-carboxylic acid [4-dimethyl-amino-4-(3-fluorophenyl)cyclohexyl]amide hydrochloride, polar diastereoisomer] | 86 | 59
2 | Cc1onc(-c2ccccc2Cl)c1C(=O)NC1CCC(c2cccc(F)c2)(N(C)C)CC1.Cl (single isomer, unassigned) [Example 118, 3-(2-chlorophenyl)-5-methylisoxazole-4-carboxylic acid [4-dimethyl-amino-4-(3-fluorophenyl)cyclohexyl]amide hydrochloride, non-polar diastereoisomer] | 50 | –
